# Reference: patent US20250281498A1, “FUSED AMINO PYRIMIDINE COMPOUNDS FOR TREATMENT OF SYNUCLEINOPATHIES AND TDP-43 PROTEINOPATHIES” (Ovid Therapeutics Inc., priority 2024, published 2025)
# Experiments:
# [1] = test system: panel of 144 protein kinases; test: protein kinase panel (SelectScreen; Thermofisher); assay type: biochemical; settings: panel incl. protein kinase C isoforms, OSR1, SPAK (STK39), WNK
# Experimental: Aliquots of HEK-293 cells expressing KCC2 were exposed to 30 μM SSA, heated from 37-55° C. The remaining level of soluble native KCC2 at each temperature was measured by immunoblotting and normalized to the level seen at 37° C. which was given a value of 1. […] This panel included protein kinase C isoforms, OSR1, SPAK (STK39) and with-no-lysine kinases (WNK), all of which phosphorylate KCC2 on multiple residues to indirectly modify its activity (Kahle et al., 2013, supra; Smalley et al., 2020, supra).
# [2] = test system: neuronal cell death in the hippocampus; test: neuronal cell death in the hippocampus of mice treated with Compound A and diazepam; assay type: in vivo; settings: Compound A and diazepam vs diazepam alone
# [3] = test system: 18-20 Div hippocampal neurons; test: gramicidin-perforated patch-clamp recording of EGABA in hippocampal neurons; assay type: cell-based, Sprague Dawley; settings: 300 nM
# Experimental: Neuronal Cultures. Hippocampal neurons were prepared from Sprague Dawley E18 embryos and plated at 450,000 per dish and maintained at 37° C. in a humidified 5% CO2 incubator for 10-25 days before experimentation (Lee et al., Nat. Neurosci. 14, 736-743 (2011)).
# At this developmental stage, GABAAR receptor activation leads to hyperpolarization, a phenomenon critically dependent upon KCC2 (Kontou et al., J Biol Chem, 100364 (2021)).
# Neuronal Patch clamp assays. Neuronal cell culture recordings were performed in bath saline at 34° C. For gramicidin perforated-patch experiments, pipettes contained (in mM): 140 KCl and 10 HEPES, pH 7.4 KOH. For whole-cell experiments, pipettes contained (in mM): 115 K-meth-SO4, 30 KCl, 2 Mg-ATP, 4 Na-ATP, 0.4 Na-GTP, and 10 HEPES, pH 7.4 KOH. Bath saline contained the following (in mM): 140 NaCl, 2.5 KCl, 2.5 CaCl2, 2.5 MgCl2, 10 HEPES, and 11 glucose, pH 7.4 NaOH (Kontou et al., 2021, supra). All compound solutions were applied to cells using a three-barreled 700 μm pipe positioned just above the cell (Warner Instruments). […] All voltages from whole-cell experiments were corrected offline using a calculated liquid junction potential value (13.6 mV) in Clampex (Molecular Devices). For gramicidin perforated-patch experiments, intracellular Cl^− values were back-calculated using measured EGABA values and the Nernst equation: […]
structure (smiles),measurement,setting,value
"C[C@@H]1CN(c2nc3c(c(Nc4ccc(C5CCCCC5)cc4)n2)COC3)CCO1 [Compound A, (R)—N-(4-cyclohexylphenyl)-2-(2-methylmorpholino)-5,7-dihydrofuro[3,4-d]pyrimidin-4-amine]",activity of a panel of 144 protein kinases,[1],did not modify the activity
same,neuronal cell death in the hippocampus,[2],significantly reduced
same,reduction in neuronal Cl−,"[3]; 15 min, calculated from EGABA",2.2 ± 0.6 mM
same,EGABA after treatment,"[3]; at 15 min (from −75±3.1 at 0 min), bumetanide and TTX present",−85.1±4.2 mV
